According to ChEMBL document CHEMBL1201862, “PubChem BioAssay data set” (2004):
Active and inactive are the calls of the source. For most assays here, no stated cut-off is given here; in the data, actives have a measured EC50 and inactives only a lower limit.

Legend:
[1] = luciferase reporter signal suppression in cells – H4 neuroglioma cells, luminescence, dose response (AID 1990); type: functional, cell-based
[2] = luciferase reporter signal reduction – luminescence, H4-C neuroglioblastoma cells, dose response (AID 2458); type: functional, cell-based;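 further: H4 neuroglioblastoma cells stably carrying a luciferase reporter gene fusion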
[3] = biological target: Luciferin 4-monooxygenase (Photinus pyralis, UniProt P08659); test: Counter Screen for Luciferase-based Assay Positives. [Related pubchem assays: 620, 618, 411 ]
[4] = biological target: Glyceraldehyde-3-phosphate dehydrogenase (Homo sapiens, UniProt P04406)
cells = type: functional, cell-based
[5] = Luminescence Cell-Based Dose Response HTS to Identify Inhibitors of 5'UTR Stem-Loop Driven Prion Protein mRNA Translation in H4 Neuroglioblastoma Cells. [Related pubchem assays: 1827 (Project Summary), 1813 (Primary HTS)]; type: functional
[6] = alpha-synuclein stem-loop luciferase translation blockers – H4 neuroglioma cells, luminescence, confirmation (AID 1988); type: functional, cell-based
HT-1080 = test: HT1080 cell viability loss – fluorescence readout (AID 620); type: functional, cell-based; settings: Homo sapiens
[7] = alpha-synuclein stem-loop translation blockers – luminescence, H4 neuroglioblastoma cells, dose confirmation, confirmation (AID 2454); type: functional, cell-based;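 further: H4 neuroglioblastoma cells carrying an alpha-synuclein 5'UTR luciferase reporter; potency for inhibition of the luciferase signal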
BJ [8] = test: BJ-TERT fibroblast viability loss – cell-based, RAS-independent, luminescence, dose response (AID 1933); type: functional; settings: Homo sapiens
BJ [9] = test: cells; type: functional, cell-based; settings: Homo sapiens
BJ [10] = test: BJ-TERT-LT-ST fibroblast viability loss – cell-based, RAS-independent, luminescence, dose response (AID 1935); type: functional; settings: Homo sapiens;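 further: BJ fibroblasts immortalized with TERT plus LT and ST oncogenes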
[11] = DRD fibroblast viability loss – cell-based, non-viral oncogenic, luminescence, dose response (AID 1934); type: functional; settings: Homo sapiens
[12] = reduction of Shn3 3'UTR-driven luciferase in osteoblasts – cell-based, Clone20 osteoblasts, firefly luciferase, cherry-picked, dose response (AID 624132); type: functional;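 further: firefly luciferase luminescence from reporter carrying the Shn3 3'UTR in osteoblasts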
[13] = loss of viability in HepG2 cells – cell-based, CellTiter-Glo, cherry-picked, cytotoxicity control for Shn3 inhibitor project, dose response (AID 624134); type: functional
[14] = Shn3 3'UTR reporter signal decrease – cell-based, Clone20 osteoblasts, firefly luciferase, cherry-pick, set 2, Schnurri-3 inhibitor project, dose response (AID 720490); type: functional;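 further: actives lower the luminescence signal as inhibitors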
Cytochrome P450 3A4 = Cytochrome P450 3A4 (Homo sapiens, UniProt P08684); settings: Potency;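 further: confirmatory qHTS run detecting inhibitors and substrates of CYP3A4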
[15] = HEK-293T cell viability reduction – luminescence, B-cell screen hits, cytotoxicity control for BCR NF-kB inhibitor project, dose response (AID 489021); type: functional, cell-based;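 further: HEK-293T cells carrying an NF-kB luciferase reporter; cells exposed to compound for about 14 hours before viability readout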
HeLa = test: Cytotoxicity counterscreen assay for transcriptional activators of heat shock protein 70 (Hsp70). [Related pubchem assays: 1203, 1252 ]; type: functional; settings: Homo sapiens;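 further: cells exposed to compound for 16 hours before readout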
[16] = A Cell Based Secondary Assay To Explore Cytotoxicity of Compounds that Sensitize Mycobacterium Tuberculosis to Beta-Lactam Antibiotics.; type: functional
[17] = biological target: T1, Calpain-2 catalytic subunit (Sus scrofa, UniProt P43367); test: m-calpain protease blockers, concentration series – biochemical, fluorogenic peptide substrate, dose response (AID 1420); type: functional
T1 sequence (P43367 whole entry): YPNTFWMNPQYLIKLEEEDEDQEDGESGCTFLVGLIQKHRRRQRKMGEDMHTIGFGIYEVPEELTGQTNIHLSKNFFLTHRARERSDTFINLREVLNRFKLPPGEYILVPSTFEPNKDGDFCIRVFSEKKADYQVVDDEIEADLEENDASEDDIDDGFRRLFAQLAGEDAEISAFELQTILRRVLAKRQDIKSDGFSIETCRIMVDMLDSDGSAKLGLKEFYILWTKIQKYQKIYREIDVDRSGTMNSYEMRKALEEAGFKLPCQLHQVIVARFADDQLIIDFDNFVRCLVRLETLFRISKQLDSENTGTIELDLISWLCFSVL

Chain of Cytochrome P450 3A4 (P08684 whole entry): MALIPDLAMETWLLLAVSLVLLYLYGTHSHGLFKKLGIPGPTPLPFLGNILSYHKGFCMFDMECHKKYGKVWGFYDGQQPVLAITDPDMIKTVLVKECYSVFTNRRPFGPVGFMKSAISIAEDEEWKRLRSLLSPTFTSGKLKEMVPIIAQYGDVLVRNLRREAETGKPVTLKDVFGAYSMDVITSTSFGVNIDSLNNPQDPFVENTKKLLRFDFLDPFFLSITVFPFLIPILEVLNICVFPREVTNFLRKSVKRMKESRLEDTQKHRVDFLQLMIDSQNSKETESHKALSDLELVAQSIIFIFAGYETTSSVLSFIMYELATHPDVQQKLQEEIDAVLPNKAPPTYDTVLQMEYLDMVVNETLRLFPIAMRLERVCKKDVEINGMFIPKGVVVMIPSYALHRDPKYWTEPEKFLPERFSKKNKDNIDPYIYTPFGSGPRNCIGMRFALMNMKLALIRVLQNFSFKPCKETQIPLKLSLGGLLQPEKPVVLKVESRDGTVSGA
Chain of Luciferin 4-monooxygenase (P08659 whole entry): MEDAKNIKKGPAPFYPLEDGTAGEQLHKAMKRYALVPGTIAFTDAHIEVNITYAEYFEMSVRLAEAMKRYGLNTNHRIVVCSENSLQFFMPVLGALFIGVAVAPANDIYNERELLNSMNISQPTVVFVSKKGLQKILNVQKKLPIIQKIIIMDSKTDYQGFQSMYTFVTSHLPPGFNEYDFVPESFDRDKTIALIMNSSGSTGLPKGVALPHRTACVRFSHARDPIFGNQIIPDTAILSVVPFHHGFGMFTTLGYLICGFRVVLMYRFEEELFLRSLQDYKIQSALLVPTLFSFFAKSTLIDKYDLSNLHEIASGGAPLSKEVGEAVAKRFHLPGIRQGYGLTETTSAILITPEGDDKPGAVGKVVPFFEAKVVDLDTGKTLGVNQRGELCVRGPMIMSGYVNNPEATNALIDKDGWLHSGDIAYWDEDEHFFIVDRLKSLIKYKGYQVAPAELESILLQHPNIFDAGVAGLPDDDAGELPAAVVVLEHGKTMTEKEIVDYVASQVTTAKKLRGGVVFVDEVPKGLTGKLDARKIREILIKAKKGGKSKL
Chain of Glyceraldehyde-3-phosphate dehydrogenase (P04406 whole entry): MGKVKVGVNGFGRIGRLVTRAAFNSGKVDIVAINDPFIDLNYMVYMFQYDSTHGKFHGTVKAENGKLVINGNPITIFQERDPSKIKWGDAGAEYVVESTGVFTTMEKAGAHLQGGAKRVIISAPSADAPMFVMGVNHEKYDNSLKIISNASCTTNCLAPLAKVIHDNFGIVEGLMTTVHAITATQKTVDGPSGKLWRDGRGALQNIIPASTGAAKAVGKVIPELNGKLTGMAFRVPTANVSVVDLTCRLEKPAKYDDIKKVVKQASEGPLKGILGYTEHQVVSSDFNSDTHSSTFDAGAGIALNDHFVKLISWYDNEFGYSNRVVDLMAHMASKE

With `CCOC(=O)C1CCCCN1C(=O)CCc1c(C)nc2cc(-c3ccccc3)nn2c1C` (stereo not drawn) as the compound, how does the EC50 [1] read?
Its EC50 is < 0.1 µM (active).

What about the EC50 [2] of the same compound?
Its EC50 is 0.972 µM (active).

What about the EC50 [3] of the same compound?
Its EC50 is > 100 µM (not active).

What about the IC50 [4] of the same compound?
Its IC50 is > 100 µM (not active).

And the EC50 (cells)?
The EC50 was > 12 µM (not active).

What about the EC50 [5] of the same compound?
Its EC50 is 11.1 µM (active).

What about the EC50 [6] of the same compound?
Its EC50 is < 0.1 µM (active).

And the EC50 (HT-1080)?
Its EC50 is > 50 µM (not active).

What about the EC50 [7] of the same compound?
Its EC50 is 1.33 µM (active).

Which results are given for `COc1ccc(OCc2cccc(C(=O)O)c2)cc1`?
EC50 [1]: 0.305 µM (active); EC50 [2]: 0.26 µM (active); EC50 (BJ [8]): 18.8 µM (active); EC50 (cells): 0.307 µM (active); EC50 [5]: 0.121 µM (active); EC50 [6]: < 0.1 µM (active); EC50 (BJ [9]): 8.86 µM (active); EC50 (BJ [10]): > 150 µM (inconclusive); EC50 [11]: 9.09 µM (inconclusive); EC50 [7]: 0.267 µM (active); AC50 [12]: 1.39 µM (active); AC50 [13]: > 70 µM (inactive); AC50 [14]: 2.01 µM (active)

For `Nc1cc(=O)[nH]c(=O)n1CC1CC1`, which AC50 (Cytochrome P450 3A4) is on record?
Its AC50 is 3.98 µM (inconclusive).

Which IC50 [15] does the source give for `COc1ccc(N=C(S)NCc2ccccc2)c(OC)c1` here?
The IC50 was > 80 µM (inactive).

For `COCCn1c(C)cc(C(=O)CSc2nc3ccccc3c(=O)n2C(C)COC)c1C` (stereo not drawn), which CC50 (HeLa) is on record?
Its CC50 is > 99 µM (not active).

With `CCc1ccc2c(c1)C(c1ccc([N+](=O)[O-])cc1)=NNC(c1ccc(C)cc1)=N2` as the compound, how does the CC50 [16] read?
Its CC50 is > 40 µM (active).

What about the IC50 [17] of the same compound?
Its IC50 is 15.6 µM (not active).

With `CCOc1cc(N2CCOCC2)c(OCC)cc1NC(=O)COc1cccc(CC)c1` as the compound, how does the CC50 [16] read?
The CC50 was > 40 µM (active).
